Data from US8841309B2, “Substituted pyrazines and their use in the treatment of disease” (Boehringer Ingelheim International GmbH, priority 2012, dated 2014).
Where a name gives a salt, the structure may show the parent alone.

Target: T1, ENaC (Mus musculus, UniProt Q61180+Q9WU38+Q9WU39)
T1 construct: Mouse kidney M-1 cells were cultivated in DMEM containing 5% FCS and 5 μM dexamethasone; endogenous in cells; host or cells: mouse kidney M-1 cells
T1 sequence (Q61180 1-699): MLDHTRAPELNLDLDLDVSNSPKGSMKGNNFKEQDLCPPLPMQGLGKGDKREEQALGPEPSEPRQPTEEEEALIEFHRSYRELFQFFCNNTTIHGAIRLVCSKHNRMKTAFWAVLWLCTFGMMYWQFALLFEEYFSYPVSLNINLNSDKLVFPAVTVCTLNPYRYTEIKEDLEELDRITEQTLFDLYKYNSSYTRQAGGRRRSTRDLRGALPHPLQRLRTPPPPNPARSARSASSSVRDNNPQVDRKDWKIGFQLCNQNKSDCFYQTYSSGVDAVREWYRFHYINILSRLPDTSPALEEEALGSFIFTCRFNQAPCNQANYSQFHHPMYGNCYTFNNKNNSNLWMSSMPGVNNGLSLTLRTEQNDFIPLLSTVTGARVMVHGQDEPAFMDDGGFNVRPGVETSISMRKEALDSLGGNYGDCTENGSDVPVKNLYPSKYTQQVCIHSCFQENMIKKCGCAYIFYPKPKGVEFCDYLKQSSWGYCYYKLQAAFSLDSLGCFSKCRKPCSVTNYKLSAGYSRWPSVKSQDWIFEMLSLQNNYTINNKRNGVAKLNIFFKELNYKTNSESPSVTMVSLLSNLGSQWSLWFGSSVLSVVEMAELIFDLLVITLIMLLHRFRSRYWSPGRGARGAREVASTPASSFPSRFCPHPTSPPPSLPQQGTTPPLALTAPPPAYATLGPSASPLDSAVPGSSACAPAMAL
T1 sequence (Q9WU38 1-638): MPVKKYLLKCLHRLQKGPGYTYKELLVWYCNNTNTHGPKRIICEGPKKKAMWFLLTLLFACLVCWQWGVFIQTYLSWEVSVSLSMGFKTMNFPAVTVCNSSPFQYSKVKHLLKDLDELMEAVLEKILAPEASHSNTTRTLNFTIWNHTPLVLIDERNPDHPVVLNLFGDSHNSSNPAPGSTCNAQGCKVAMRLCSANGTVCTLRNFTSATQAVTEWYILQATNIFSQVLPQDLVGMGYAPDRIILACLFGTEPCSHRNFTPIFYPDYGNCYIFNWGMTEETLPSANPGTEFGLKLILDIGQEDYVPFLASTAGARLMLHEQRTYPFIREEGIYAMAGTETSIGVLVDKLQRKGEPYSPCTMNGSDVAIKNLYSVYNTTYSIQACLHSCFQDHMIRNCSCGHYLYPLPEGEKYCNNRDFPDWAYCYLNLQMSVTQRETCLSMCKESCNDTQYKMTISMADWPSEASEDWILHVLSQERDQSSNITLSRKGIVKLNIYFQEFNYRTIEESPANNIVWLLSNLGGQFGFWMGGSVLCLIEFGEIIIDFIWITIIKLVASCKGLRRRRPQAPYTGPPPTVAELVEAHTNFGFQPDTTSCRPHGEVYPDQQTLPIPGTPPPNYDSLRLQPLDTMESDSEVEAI
T1 sequence (Q9WU39 1-655): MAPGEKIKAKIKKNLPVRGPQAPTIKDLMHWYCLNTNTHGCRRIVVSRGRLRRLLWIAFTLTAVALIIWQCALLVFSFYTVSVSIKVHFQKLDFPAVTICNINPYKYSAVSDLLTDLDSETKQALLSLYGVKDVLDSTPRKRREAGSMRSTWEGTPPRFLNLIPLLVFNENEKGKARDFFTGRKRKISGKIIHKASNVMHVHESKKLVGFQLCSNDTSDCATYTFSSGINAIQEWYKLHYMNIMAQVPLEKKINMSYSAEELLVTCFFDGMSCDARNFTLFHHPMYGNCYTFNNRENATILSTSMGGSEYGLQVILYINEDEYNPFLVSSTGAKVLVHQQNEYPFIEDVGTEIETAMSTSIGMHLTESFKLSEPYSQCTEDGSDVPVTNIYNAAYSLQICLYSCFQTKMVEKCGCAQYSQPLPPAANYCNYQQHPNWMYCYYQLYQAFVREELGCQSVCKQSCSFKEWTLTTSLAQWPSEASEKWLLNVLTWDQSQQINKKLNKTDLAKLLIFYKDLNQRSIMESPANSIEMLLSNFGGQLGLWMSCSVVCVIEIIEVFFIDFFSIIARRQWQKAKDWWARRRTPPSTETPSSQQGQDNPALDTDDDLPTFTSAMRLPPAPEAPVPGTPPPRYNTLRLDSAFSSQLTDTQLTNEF
Experiment: Ussing chamber: short circuit current (I_sc) in mouse kidney M-1 cells, amiloride-sensitive
Type: cell-based
Details: compound applied to apical solution, 37° C.
Protocol: Ussing Chamber: Mouse kidney M-1 cells were cultivated in DMEM containing 5% FCS and 5 μM dexamethasone for 10 to 12 days on polyester transwell filters. Filters were inserted into a teflon-coated well-plate which fit into the in-house ussing chamber system. Prior to measurement the medium of M-1 cells was replaced with Caco-2 transport buffer (Invitrogen, Germany). During measurements, the Ussing chamber temperature was kept at 37° C. Short circuit currents (I_sc) were measured in the voltage-clamp mode using an in-house built amplifier (Boehringer Ingelheim, Biberach) with the software package Lab View for data acquisition and analysis. The transepithelial electrical resistance (TEER) was determined by the application of voltage steps of ±5 mV every 5 sec. Compounds were administered at a final concentration of 3 μM or at increasing concentrations (1-3-10 μM) to the apical solution. At the end of each experiment the amiloride sensitive I_SC was measured by adding 3 μM amiloride to the apical compartment. Results are expressed as inhibition in percent of the amiloride effect or as IC50.

| Structure (SMILES) | IC50 [nM] |
| --- | --- |
| CC(C)(C)OC(=O)C1CCN(C(=O)C[N+]23CCC(CC2)[C@H](NC(N)=NC(=O)c2nc(Cl)c(N)nc2N)C3)CC1 [Example 67, (S)-1-[2-(4-tert-butoxycarbonyl-piperidin-1-yl)-2-oxo-ethyl]-3-[N′-(3,5-diamino-6-chloro-pyrazine-2-carbonyl)-guanidino]-1-azonia-bicyclo[2.2.2]octane; chloride] | 40 |
| CCNC(=O)C(c1ccccc1)[N+]12CCC(CC1)[C@H](NC(=N)NC(=O)c1nc(Cl)c(N)nc1N)C2 (stereo partly drawn) [Example 68.1, (S)-3-[N′-(3,5-Diamino-6-chloro-pyrazine-2-carbonyl)-guanidino]-1-(ethylcarbamoyl-phenyl-methyl)-1-azonia-bicyclo[2.2.2]octane bromide] | 18 |
| CC(C)=CC[N+]12CCC(CC1)[C@H](N/C(N)=N/C(=O)c1nc(Cl)c(N)nc1N)C2 [Example 69, (S)-3-[N′-(3,5-Diamino-6-chloro-pyrazine-2-carbonyl)-guanidino]-1-(3-methyl-but-2-enyl)-1-azoniabicyclo[2.2.2]octane chloride] | 188 |
| C[N+]1(Cc2ccccc2)CCC(N/C(N)=N/C(=O)c2nc(Cl)c(N)nc2N)CC1 (stereo not shown) [Example 70, 1-Benzyl-4-[N′-(3,5-diamino-6-chloro-pyrazine-2-carbonyl)-guanidino]-1-methyl-piperidinium chloride] | 106 |
| COC(=O)c1ccc(C[N+]2(C)CCC(NC(N)=NC(=O)c3nc(Cl)c(N)nc3N)CC2)cc1 (stereo not shown) [Example 70.1] | 64 |
| CC[N+]1(Cc2ccccc2)CCC(NC(N)=NC(=O)c2nc(Cl)c(N)nc2N)CC1 (stereo not shown) [Example 70.2] | 52 |
| CCNC(=O)C[N+]1(C)CCC[C@@H](NC(N)=NC(=O)c2nc(Cl)c(N)nc2N)C1 (stereo partly shown) [Example 70.3] | 260 |
| CC[N+]1(CC(=O)Nc2cccc(F)c2)CCC(NC(N)=NC(=O)c2nc(Cl)c(N)nc2N)CC1 (stereo not shown) [Example 70.7] | 31 |
| C[N+]1(Cc2ccccc2)CC[C@H](NC(N)=NC(=O)c2nc(Cl)c(N)nc2N)C1 (stereo partly shown) [Example 71.2] | 113 |
| CN(C(=O)C[N+]1(C)CCC(NC(N)=NC(=O)c2nc(Cl)c(N)nc2N)CC1)c1ccccc1 (stereo not shown) [Example 72.1] | 137 |
| CN(Cc1ccccc1)C(=O)C[N+]1(C)CCC(NC(N)=NC(=O)c2nc(Cl)c(N)nc2N)CC1 (stereo not shown) [Example 72.2] | 76 |
| COC(=O)c1ccccc1NC(=O)C[N+]1(C)CCC(NC(N)=NC(=O)c2nc(Cl)c(N)nc2N)CC1 (stereo not shown) [Example 72.3] | 22 |
| N=C(NC(=O)c1nc(Cl)c(N)nc1N)N[C@@H]1C[N+]2(CC(=O)N[C@@H](Cc3ccccc3)C(=O)O)CCC1CC2 [Example 73, (S)-1-[((S)-1-Carboxy-2-phenyl-ethylcarbamoyl)-methyl]-3-[N′-(3,5-diamino-6-chloro-pyrazine-2-carbonyl)-guanidino]-1-azonia-bicyclo[2.2.2]octane chloride hydrochloride] | 4 |
| N=C(NC(=O)c1nc(Cl)c(N)nc1N)N[C@@H]1C[N+]2(CC(=O)N[C@H](Cc3ccccc3)C(=O)O)CCC1CC2 [Example 73.1, (S)-1-[((R)-1-Carboxy-2-phenyl-ethylcarbamoyl)-methyl]-3-[N′-(3,5-diamino-6-chloro-pyrazine-2-carbonyl)-guanidino]-1-azonia-bicyclo[2.2.2]octane; chloride hydrochloride] | 197 |
| N=C(NC(=O)c1nc(Cl)c(N)nc1N)N[C@@H]1C[N+]2(CC(=O)N3CCC(C(=O)O)CC3)CCC1CC2 [Example 73.2, (S)-1-[2-(4-Carboxy-piperidin-1-yl)-2-oxo-ethyl]-3-[N′-(3,5-diamino-6-chloro-pyrazine-2-carbonyl)-guanidino]-1-azonia-bicyclo[2.2.2]octane chloride hydrochloride] | 269 |
| NC(=NC(=O)c1nc(Cl)c(N)nc1N)N[C@@H]1C[N+]2(CC(=O)NCC3(c4ccccc4)CCOCC3)CCC1CC2 [Example 74] | 15 |
| NC(=NC(=O)c1nc(Cl)c(N)nc1N)NC1C[N+]2(CC(=O)NC3CCC(c4ccccc4)CC3)CCC1CC2 (stereo not shown) [Example 75] | 22 |
| NC(=NC(=O)c1nc(Cl)c(N)nc1N)N[C@@H]1C[N+]2(CC(=O)NCC3CCOCC3)CCC1CC2 [Example 76] | 39 |
| CCOC(=O)c1cccc(CCNC(=O)C[N+]23CCC(CC2)[C@H](NC(N)=NC(=O)c2nc(Cl)c(N)nc2N)C3)c1 [Example 77] | 43 |
